In ChEMBL document CHEMBL3045717, “Synthesis and pharmacological properties of some novel pyrazolidine and pyrazole derivatives” (2012):

Assays:
Type in all cases: functional
Conditions in all cases: read-out: DIZ
[1] = tested on: Pseudomonas aeruginosa; experiment: Antibacterial activity against Pseudomonas aeruginosa at 200 ug/ml after 24 hr by agar diffusion cup-plate method
[2] = tested on: Aspergillus niger; experiment: Antifungal activity against Aspergillus niger at 100 ug/ml after 48 to 72 hr by agar diffusion cup-plate method
[3] = tested on: Aspergillus niger; experiment: Antifungal activity against Aspergillus niger at 50 ug/ml after 48 to 72 hr by agar diffusion cup-plate method
[4] = tested on: Pseudomonas aeruginosa; experiment: Antibacterial activity against Pseudomonas aeruginosa at 100 ug/ml after 24 hr by agar diffusion cup-plate method
[5] = tested on: Candida albicans; experiment: Antifungal activity against Candida albicans at 100 ug/ml after 48 to 72 hr by agar diffusion cup-plate method
[6] = tested on: Escherichia coli; experiment: Antibacterial activity against Escherichia coli at 50 ug/ml after 24 hr by agar diffusion cup-plate method
[7] = tested on: Bacillus subtilis; experiment: Antibacterial activity against Bacillus subtilis at 50 ug/ml after 24 hr by agar diffusion cup plate method
[8] = tested on: Bacillus subtilis; experiment: Antibacterial activity against Bacillus subtilis at 200 ug/ml after 24 hr by agar diffusion cup plate method
[9] = tested on: Candida albicans; experiment: Antifungal activity against Candida albicans at 50 ug/ml after 48 to 72 hr by agar diffusion cup-plate method
[10] = tested on: Staphylococcus aureus; experiment: Antibacterial activity against Staphylococcus aureus at 100 ug/ml after 24 hr by agar diffusion cup-plate method
[11] = tested on: Escherichia coli; experiment: Antibacterial activity against Escherichia coli at 100 ug/ml after 24 hr by agar diffusion cup-plate method
[12] = tested on: Aspergillus niger; experiment: Antifungal activity against Aspergillus niger at 200 ug/ml after 48 to 72 hr by agar diffusion cup-plate method
[13] = tested on: Staphylococcus aureus; experiment: Antibacterial activity against Staphylococcus aureus at 50 ug/ml after 24 hr by agar diffusion cup-plate method
[14] = tested on: Staphylococcus aureus; experiment: Antibacterial activity against Staphylococcus aureus at 200 ug/ml after 24 hr by agar diffusion cup-plate method
[15] = tested on: Escherichia coli; experiment: Antibacterial activity against Escherichia coli at 200 ug/ml after 24 hr by agar diffusion cup-plate method
[16] = tested on: Bacillus subtilis; experiment: Antibacterial activity against Bacillus subtilis at 100 ug/ml after 24 hr by agar diffusion cup plate method
[17] = tested on: Pseudomonas aeruginosa; experiment: Antibacterial activity against Pseudomonas aeruginosa at 50 ug/ml after 24 hr by agar diffusion cup-plate method
[18] = tested on: Candida albicans; experiment: Antifungal activity against Candida albicans at 200 ug/ml after 48 to 72 hr by agar diffusion cup-plate method

Row | SMILES | zone of inhibition at 200 µg/mL [1] [mm] | zone of inhibition at 100 µg/mL [2] [mm] | zone of inhibition at 50 µg/mL [3] [mm] | zone of inhibition at 100 µg/mL [4] [mm] | zone of inhibition at 100 µg/mL [5] [mm] | zone of inhibition at 50 µg/mL [6] [mm] | zone of inhibition at 50 µg/mL [7] [mm] | zone of inhibition at 200 µg/mL [8] [mm] | zone of inhibition at 50 µg/mL [9] [mm] | zone of inhibition at 100 µg/mL [10] [mm] | zone of inhibition at 100 µg/mL [11] [mm] | zone of inhibition at 200 µg/mL [12] [mm] | zone of inhibition at 50 µg/mL [13] [mm] | zone of inhibition at 200 µg/mL [14] [mm] | zone of inhibition at 200 µg/mL [15] [mm] | zone of inhibition at 100 µg/mL [16] [mm] | zone of inhibition at 50 µg/mL [17] [mm] | zone of inhibition at 200 µg/mL [18] [mm]
1 | CC1=NN(c2ccc([N+](=O)[O-])cc2[N+](=O)[O-])C(=O)C1 | 22 | 14 | 12.2 | 16 | 14 | 12 | 10.2 | 12 | 10 | 18 | 16 | 18 | 14.2 | 24.1 | 20.4 | 10.1 | 12.2 | 20.4
2 | O=C1CS/C(=N/c2ccccc2)N1Nc1ccc([N+](=O)[O-])cc1[N+](=O)[O-] | 12 | 14.5 | 10.2 | 10.3 | 18.4 | 18.2 | 12 | 26.4 | 11.1 | 22.2 | 26.1 | 16.6 | 16.2 | 30.4 | 30.1 | 20.8 | 10.2 | 24.2
3 | NC1=NN(c2ccc([N+](=O)[O-])cc2[N+](=O)[O-])C(=O)C1 | 16.3 | 10.1 | 8.4 | 12.1 | 14 | 12.3 | 10.4 | 12 | 12.3 | 20 | 16 | 14.3 | 14 | 26 | 20.6 | 8.1 | 8.4 | 20.8
4 | CC(=O)N1C(=O)CC(=O)N1c1ccc([N+](=O)[O-])cc1[N+](=O)[O-] | 28 | 16.8 | 12.2 | 22.8 | 18.2 | 13.2 | 10.2 | 25.1 | 13.2 | 22 | 15.2 | 24 | 10 | 26.1 | 30.6 | 18.9 | 18.2 | 24.2
5 | O=C1CC(=O)N(c2ccc([N+](=O)[O-])cc2[N+](=O)[O-])N1 | 16.1 | 12.2 | 10.1 | 13.2 | 10.1 | 16.2 | 10.2 | 16 | 6.2 | 12 | 18.1 | 14.1 | 8.4 | 18.1 | 20.2 | 12 | 12.1 | 10.2
6 | O=[N+]([O-])c1ccc(NNC(=S)Nc2ccccc2)c([N+](=O)[O-])c1 | 20.2 | 14.2 | 10 | 14.2 | 14.1 | 10.2 | 10.2 | 18.4 | 11.5 | 14 | 14.1 | 16.2 | 10 | 18 | 18.6 | 14.1 | 12 | 18.4
7 | Clc1ccccc1C(c1ccccc1)(c1ccccc1)n1ccnc1 [CLOTRIMAZOLE] |  | 28.4 | 28.4 |  | 28.4 |  |  |  | 28.4 |  |  | 28.4 |  |  |  |  |  | 28.4
8 | Cc1cc(C)n(-c2ccc([N+](=O)[O-])cc2[N+](=O)[O-])n1 | 25 | 18.6 | 10.2 | 18.6 | 20 | 14.3 | 10.4 | 22.9 | 14.3 | 23 | 23 | 25 | 14 | 24 | 28.5 | 18.5 | 10.2 | 24.5
9 | CCn1cc(C(=O)O)c(=O)c2cc(F)c(N3CCNCC3)cc21 [NORFLOXACIN] | 31.1 |  |  | 31.1 |  | 35.4 | 31.3 | 31.3 |  | 30.4 | 35.4 |  | 30.4 | 30.4 | 35.5 | 31.3 | 31.1 | 
10 | O=C1CC(CCl)=NN1c1ccc([N+](=O)[O-])cc1[N+](=O)[O-] | 28.6 | 22.1 | 14 | 22.1 | 23 | 14.2 | 12.2 | 28 | 14.2 | 20 | 23 | 26.6 | 15 | 28.1 | 30.4 | 20.1 | 14 | 26.4
